{"source": "patent US9625458B2", "about": "“Biosensor” (priority 2002, dated 2017)", "key": {"[1]": {"biological_target": "T1, E. coli ribose binding protein variant L236C, fluorophore conjugate (Escherichia coli, UniProt P02925, L261C)", "T1 construct": "Gly-Ser-Gly-(His)n or Gly-Ser-(His)n, n=5, 6 or 10 (C); initiator methionine (N); made in house; host or cells: E. coli strain BL21-DE3", "experiment": "Fluorimetric titration of fluorophore conjugates", "conditions": "ligand ribose", "description": "(§1) Molecular Cloning. […] Amplified products were cloned into one of the protein expression vectors pAED4 (Doering, “Functional and structural studies of a small f-actin binding domain” in Ph.D. thesis, Massachusetts Institute of Technology, 1992); pKK223-3 (Brosius & Holy, Proc. Natl. Acad. Sci. USA 81:6929-6933, 1984); or pET vectors (Studier et al., Meth. Enzymol. 185:60-89, 1990) (Novagen). N-terminal oligonucleotide primers were designed to clone only the processed periplasmic form, deleting the signal sequence. The C-terminal primer was designed to append the sequence Gly-Ser-Gly-(His)n or Gly-Ser-(His)n, where n=5, 6, or 10. Two tandem stop codons (TAATGA) follow the last His codon. […] Single amino acid substitutions were generated by overlapping PCR mutagenesis (Ho et al., Gene 77:51-59, 1989). All clones and mutations were confirmed by nucleotide sequencing. In the case of arabinose BP, the single cysteine in the wild type sequence was replaced by alanine to eliminate the possibility of reporter group conjugation to this thiol (Miller et al., J. Biol. Chem. 254:7521-7528, 1979). Additionally the sequence of Fe(III) BP was mutated by substitution of Glu57 with Asp to raise the Kd to a concentration range conveniently measured using Fe(III) citrate.\n(§2) Fluorophore conjugation to cysteine-substituted bPBPs. Thiol-reactive fluorophores obtained from Molecular Probes (Eugene, Oreg.) were 5-iodoacetamidofluorescein (fluorescein); N-(1-pyrene) iodoacetamide (pyrene); N,N′-dimethyl-N-(iodoacetyl)-N′-(7-nitrobenz-2-oxa-1,3-diazol-4-yl)ethylenediamide (NBD); N-((2-(iodoacetoxy)ethyl)-N-methyl)amino-7-nitrobenz-2-oxa-1,3-diazole (NBDE); and 6-acryloyl-2-dimethylaminonaphthalene (acrylodan). The styryl and naphthyl dyes JPW4039, JPW4042, and JPW4045 (FIG. 3) were synthesized at the University of Connecticut. All fluorophore conjugation steps were typically carried out at room temperature. To protein at a concentration of 100 μM was added tris-(2-carboxyethyl)phosphine HCl to a five-fold molar excess to reduce intermolecular disulfide bonds. A thiol-reactive fluorophore (20 to 25 mM in acetonitrile or dimethyl sulfoxide) was added in small aliquots to a five-fold molar excess over protein. Conjugation proceeded in the dark at room temperature for 4 hours, or overnight at 4° C. Separation of protein from unreacted fluorophore was achieved by exhaustive dialysis or by size-exclusion chromatography. The efficiency of reporter group attachment was assessed by determination of unreacted thiol with Ellman's reagent (Ellman, Arch. Biochem. Biophys. 74:443-450, 1958) or by measuring the ratio of fluorophore to protein from absorbance spectra of the purified conjugate.\n(§3) Fluorimetry. All measurements were conducted with an SLM Aminco-Bowman series 2 fluorimeter, with sample stirring at 25° C. Fluorescence emission spectra were acquired with excitation and emission slit widths of 4 and 8 nm, respectively. Photomultiplier tube potential was maintained between 400 and 800 volts. Protein concentrations were in the range of 50 to 1000 nM. Fluorophore-specific excitation was at the following approximate wavelengths: tryptophan, 290 nm; acrylodan, 390 nm; fluorescein, 485 nm; pyrene, 340 nm; NBD and NBDE, 490 nm; JPW4039, 485 nm; JPW4042, 470 nm; JPW4045, 470 nm.\n(§4) Corrections were made for dilution of the protein and for background signal from buffer. Binding curves were fit to binding isotherms using equation 3 or 4, as appropriate.\n(§5) Analyte affinity measurements. […] The emission wavelength monitored was that of maximum difference in intensity between the ligand-free and bound states. For each conjugate, fluorescence intensiometric observations were fit to a hyperbolic binding isotherm for a two-state model (Marvin et al., Proc. Natl. Acad. Sci. USA 94:4366-4371, 1997): […]"}, "[2]": {"biological_target": "T2, E. coli ribose binding protein variant A234C, fluorophore conjugate (Escherichia coli, UniProt P02925, A259C)", "T2 construct": "Gly-Ser-Gly-(His)n or Gly-Ser-(His)n, n=5, 6 or 10 (C); initiator methionine (N); made in house; host or cells: E. coli strain BL21-DE3", "experiment": "Fluorimetric titration of fluorophore conjugates", "conditions": "ligand ribose", "description": "as §1, §2, §3, §4, §5"}, "[3]": {"biological_target": "T3, E. coli ribose binding protein variant E192C, fluorophore conjugate (Escherichia coli, UniProt P02925, E217C)", "T3 construct": "Gly-Ser-Gly-(His)n or Gly-Ser-(His)n, n=5, 6 or 10 (C); initiator methionine (N); made in house; host or cells: E. coli strain BL21-DE3", "experiment": "Fluorimetric titration of fluorophore conjugates", "description": "as §1, §2, §3, §4, §5"}, "[4]": {"biological_target": "T4, E. coli ribose binding protein variant L265C, fluorophore conjugate (Escherichia coli, UniProt P02925, L290C)", "T4 construct": "Gly-Ser-Gly-(His)n or Gly-Ser-(His)n, n=5, 6 or 10 (C); initiator methionine (N); made in house; host or cells: E. coli strain BL21-DE3", "experiment": "Fluorimetric titration of fluorophore conjugates", "description": "as §1, §2, §3, §4, §5"}, "[5]": {"biological_target": "T5, E. coli ribose binding protein (RBP), fluorophore-conjugated cysteine mutants (Escherichia coli, UniProt P02925)", "T5 construct": "single-Cys mutants (e.g. T135C, E192C) with fluorophores", "experiment": "Ligand affinity of ribose BP fluorescent conjugates (Kd range)", "conditions": "range over conjugates, n=14", "description": "(§6) Molecular Cloning. […] Amplified products were cloned into one of the protein expression vectors pAED4 (Doering, “Functional and structural studies of a small f-actin binding domain” in Ph.D. thesis, Massachusetts Institute of Technology, 1992); pKK223-3 (Brosius & Holy, Proc. Natl. Acad. Sci. USA 81:6929-6933, 1984); or pET vectors (Studier et al., Meth. Enzymol. 185:60-89, 1990) (Novagen). N-terminal oligonucleotide primers were designed to clone only the processed periplasmic form, deleting the signal sequence. The C-terminal primer was designed to append the sequence Gly-Ser-Gly-(His)n or Gly-Ser-(His)n, where n=5, 6, or 10. Two tandem stop codons (TAATGA) follow the last His codon. […] Additionally the sequence of Fe(III) BP was mutated by substitution of Glu57 with Asp to raise the Kd to a concentration range conveniently measured using Fe(III) citrate.\n(§7) Fluorophore conjugation to cysteine-substituted bPBPs. […] The efficiency of reporter group attachment was assessed by determination of unreacted thiol with Ellman's reagent (Ellman, Arch. Biochem. Biophys. 74:443-450, 1958) or by measuring the ratio of fluorophore to protein from absorbance spectra of the purified conjugate.\n(§8) Fluorimetry. […] Fluorescence emission spectra were acquired with excitation and emission slit widths of 4 and 8 nm, respectively. […]"}, "[6]": {"biological_target": "E. coli histidine binding protein (SEQ ID NO:2) variant E167C, fluorophore conjugate (Escherichia coli, UniProt P0AEU0, E189C)", "experiment": "biochemical", "description": "as §1, §2\n(§9) Fluorimetry. All measurements were conducted with an SLM Aminco-Bowman series 2 fluorimeter, with sample stirring at 25° C. Fluorescence emission spectra were acquired with excitation and emission slit widths of 4 and 8 nm, respectively. Photomultiplier tube potential was maintained between 400 and 800 volts. Protein concentrations were in the range of 50 to 1000 nM. […]\nas §5"}, "[7]": {"biological_target": "E. coli histidine binding protein (SEQ ID NO:2) variant V163C, fluorophore conjugate (Escherichia coli, UniProt P0AEU0, V185C)", "experiment": "biochemical", "description": "as §1, §2, §9, §5"}, "[8]": {"biological_target": "E. coli histidine binding protein (HBP, SEQ ID NO:2), fluorophore-conjugated cysteine mutants (Escherichia coli, UniProt P0AEU0)", "conditions": "read-out: range of Kd; range over conjugates, n=4", "description": "as §6, §7, §8"}}}
{"smiles": "OC1OC[C@@H](O)[C@@H](O)[C@H]1O", "note": "(stereo partly shown) [ribose]", "values": [{"measurement": "Kd", "setting": "[1]; JPW4042 conjugate", "result": 620, "unit": "nM"}, {"measurement": "Kd", "setting": "[1]; JPW4045 conjugate", "result": 1530, "unit": "nM"}, {"measurement": "Kd", "setting": "[1]; NBD conjugate", "result": 100, "unit": "nM"}, {"measurement": "Kd", "setting": "[2]; JPW4039 conjugate", "result": 1840, "unit": "nM"}, {"measurement": "Kd", "setting": "[2]; JPW4045 conjugate", "result": 3760, "unit": "nM"}, {"measurement": "Kd", "setting": "[2]; NBD conjugate", "result": 735, "unit": "nM"}, {"measurement": "Kd", "setting": "[3]; Kd, Fluorescein conjugate, E192C, ligand ribose", "result": 11400, "unit": "nM"}, {"measurement": "Kd", "setting": "[3]; Kd, JPW4039 conjugate, E192C, ligand ribose", "result": 2570, "unit": "nM"}, {"measurement": "Kd", "setting": "[3]; Kd, JPW4042 conjugate, E192C, ligand ribose", "result": 5030, "unit": "nM"}, {"measurement": "Kd", "setting": "[3]; Kd, JPW4045 conjugate, E192C, ligand ribose", "result": 15000, "unit": "nM"}, {"measurement": "Kd", "setting": "[3]; Kd, NBD conjugate, E192C, ligand ribose", "result": 2600, "unit": "nM"}, {"measurement": "Kd", "setting": "[3]; affinity for ribose (Kd), E192C-JPW4039 conjugate", "result": 2600, "unit": "nM"}, {"measurement": "Kd", "setting": "[3]; affinity for ribose (Kd), E192C-JPW4045 conjugate", "result": 15000, "unit": "nM"}, {"measurement": "Kd", "setting": "[3]; affinity for ribose (Kd), E192C-NBD conjugate", "result": 2600, "unit": "nM"}, {"measurement": "Kd", "setting": "[4]", "result": 260, "unit": "nM"}, {"measurement": "range of Kd", "setting": "[5]", "result": "100 to 2.09e+06", "unit": "nM"}]}
{"smiles": "N[C@@H](Cc1c[nH]cn1)C(=O)O", "note": "[histidine]", "values": [{"measurement": "Kd", "setting": "[6]", "result": 60, "unit": "nM"}, {"measurement": "Kd", "setting": "[7]; Acrylodan conjugate, peristeric site", "result": 400, "unit": "nM"}, {"measurement": "Kd", "setting": "[7]; JPW4042 conjugate, peristeric site", "result": 250, "unit": "nM"}, {"measurement": "Kd", "setting": "[7]; NBD conjugate, peristeric site", "result": 2370, "unit": "nM"}, {"measurement": "Kd", "setting": "[7]; V163C-JPW4042", "result": 250, "unit": "nM"}, {"measurement": "Kd", "setting": "[8]", "result": "60 to 2370", "unit": "nM"}]}
